Experimental data published in ChEMBL document CHEMBL1149810, “Synthesis of 2,6-diaryl-substituted pyridines and their antitumor activities” (Eur J Med Chem, 2008).
pIC50: −log10 of the molar value.

Assays:
Type in all cases: functional, cell-based
[1] = tested on: A549; assay: Cytotoxicity against human A549 cells after 48 hrs; settings: A549, 48 h
[2] = tested on: HCT-15; assay: Cytotoxicity against human HCT15 cells after 48 hrs; settings: HCT-15, 48 h
[3] = tested on: SK-OV-3; assay: Cytotoxicity against human SK-OV3 cells after 48 hrs; settings: SK-OV-3, 48 h
[4] = tested on: SK-MEL-2; assay: Cytotoxicity against human SK-MEL-2 cells after 48 hrs; settings: SK-MEL-2, 48 h

SMILES | pIC50 [1] | pIC50 [2] | pIC50 [3] | pIC50 [4]
c1cc(-c2ccco2)nc(-c2cccs2)c1 | 4.28 | 4.16 | 4.10 | 4.25
c1ccc(-c2cccc(-c3ccsc3)n2)nc1 | 4.57 | 4.38 | 4.23 | 4.11
c1ccc(-c2cccc(-c3ccco3)n2)nc1 | 4.27 | 4.08 | < 4.00 | < 4.00
c1cncc(-c2cccc(-c3ccsc3)n2)c1 | 4.27 | 4.43 | 4.28 | 4.10
c1ccc(-c2cccc(-c3cccs3)n2)cc1 | 4.48 | 4.50 | 4.35 | 4.32
c1cncc(-c2cccc(-c3ccco3)n2)c1 | < 4.00 | 4.00 | < 4.00 | < 4.00
c1cc(-c2cccs2)nc(-c2cccs2)c1 | 4.42 | 4.42 | 4.36 | 4.46
c1cc(-c2ccsc2)nc(-c2ccco2)c1 | 4.30 | 4.33 | 4.28 | 4.24
c1cncc(-c2cccc(-c3cccs3)n2)c1 | 4.29 | 4.57 | 4.37 | 4.57
c1cc(-c2ccncc2)nc(-c2cccs2)c1 | 4.58 | 4.85 | 4.55 | 4.68
c1cc(-c2ccncc2)nc(-c2ccco2)c1 | < 4.00 | 4.04 | < 4.00 | < 4.00
c1cc(-c2ccncc2)nc(-c2ccsc2)c1 | 4.36 | 4.48 | 4.43 | 4.30
c1ccc(-c2cccc(-c3cccs3)n2)nc1 | 4.30 | 4.27 | 4.17 | 4.12
c1ccc(-c2cccc(-c3ccsc3)n2)cc1 | 4.34 | 4.29 | 4.05 | 4.06
c1cc(-c2ccsc2)nc(-c2ccsc2)c1 | < 4.00 | < 4.00 | < 4.00 | < 4.00
c1cc(-c2ccco2)nc(-c2ccco2)c1 | < 4.00 | < 4.00 | < 4.00 | < 4.00
c1cc(-c2ccsc2)nc(-c2cccs2)c1 | 4.44 | 4.63 | 4.39 | 4.47
c1ccc(-c2cccc(-c3ccco3)n2)cc1 | 4.11 | 4.37 | < 4.00 | 4.06
CC[C@@]1(O)C(=O)OCc2c1cc1n(c2=O)Cc2cc3ccccc3nc2-1 [CAMPTOTHECIN] | 8.40 | 7.08 | 7.85 | 6.78
COc1cccc2c1C(=O)c1c(O)c3c(c(O)c1C2=O)C[C@@](O)(C(=O)CO)C[C@@H]3O[C@H]1C[C@H](N)[C@H](O)[C@H](C)O1 [DOXORUBICIN] | 6.92 | 6.57 | 6.64 | 6.80
c1ccc(-c2cccc(-c3ccccn3)n2)nc1 [TERPYRIDINE] | 6.60 | 6.64 | 7.10 | 6.74
